The source made the active and inactive calls. The rule behind the calls is not given here.
Test system: KB
Experiment: Cytotoxicity against human KB cells at 4 ug/ml
Format: functional, cell-based

Compound | Activity
C[C@@H]1O[C@@H](O[C@H]2CC[C@]3(C)[C@H]4CC=C5[C@@H]6CC(C)(C)CC[C@]6(C(=O)O)CC[C@@]5(C)[C@]4(C)CC[C@H]3C2(C)C)[C@H](O[C@@H]2O[C@H](CO)[C@@H](O)[C@H](O)[C@H]2O)[C@H](O[C@@H]2O[C@H](CO)[C@@H](O[C@@H]3O[C@H](CO)[C@H](O)[C@H](O[C@@H]4OC[C@@H](O)[C@H](O)[C@H]4O)[C@H]3O)[C@H](O)[C@H]2O)[C@H]1O | inactive
C[C@@H]1O[C@@H](O[C@H]2CC[C@]3(C)[C@H]4CC=C5[C@@H]6CC(C)(C)CC[C@]6(C(=O)O)[C@H](O)C[C@@]5(C)[C@]4(C)CC[C@H]3C2(C)C)[C@H](O[C@@H]2O[C@H](CO)[C@@H](O)[C@H](O)[C@H]2O)[C@H](O[C@@H]2O[C@H](CO)[C@@H](O[C@@H]3O[C@H](CO)[C@H](O)[C@H](O[C@@H]4OC[C@@H](O)[C@H](O)[C@H]4O)[C@H]3O)[C@H](O)[C@H]2O)[C@H]1O | inactive
C[C@@H]1O[C@@H](O[C@H]2[C@H](O)[C@@H](O)[C@H](O[C@H]3[C@H](O)[C@@H](O)[C@H](O[C@@H]4[C@@H](O)[C@@H](O)[C@H](O[C@H]5[C@H](O)[C@@H](O)[C@H](O[C@H]6[C@H](O)[C@@H](O)[C@H](OC(=O)[C@]78CCC(C)(C)C[C@H]7C7=CC[C@@H]9[C@@]%10(C)CC[C@H](O[C@@H]%11O[C@@H](C)[C@H](O)[C@@H](O)[C@H]%11O[C@@H]%11O[C@H](CO)[C@@H](O)[C@H](O)[C@H]%11O)[C@@](C)(CO)[C@@H]%10CC[C@@]9(C)[C@]7(C)CC8)O[C@@H]6CO)O[C@@H]5CO)O[C@H]4C)O[C@@H]3CO)O[C@@H]2CO)[C@H](O)[C@H](O)[C@H]1O | inactive
C[C@@H]1O[C@@H](O[C@H]2[C@H](O)[C@@H](O)[C@H](O[C@H]3[C@H](O)[C@@H](O)[C@H](OC(=O)[C@]45CCC(C)(C)C[C@H]4C4=CC[C@@H]6[C@@]7(C)CC[C@H](O[C@@H]8O[C@@H](C)[C@H](O)[C@@H](O[C@@H]9O[C@H](CO)[C@@H](O[C@@H]%10O[C@H](CO)[C@H](O)[C@H](O[C@@H]%11OC[C@@H](O)[C@H](O)[C@H]%11O)[C@H]%10O)[C@H](O)[C@H]9O)[C@H]8O[C@@H]8O[C@H](CO)[C@@H](O)[C@H](O)[C@H]8O)C(C)(C)[C@@H]7CC[C@@]6(C)[C@]4(C)C[C@H]5O)O[C@@H]3CO)O[C@@H]2CO)[C@H](O)[C@H](O)[C@H]1O | inactive
C[C@@H]1O[C@@H](O[C@H]2[C@H](O)[C@@H](O)[C@H](O[C@H]3[C@H](O)[C@@H](O)[C@H](OC(=O)[C@]45CCC(C)(C)C[C@H]4C4=CC[C@@H]6[C@@]7(C)CC[C@H](O[C@@H]8O[C@@H](C)[C@H](O)[C@@H](O[C@@H]9O[C@H](CO)[C@@H](O[C@@H]%10O[C@H](CO)[C@H](O)[C@H](O[C@@H]%11OC[C@@H](O)[C@H](O)[C@H]%11O)[C@H]%10O)[C@H](O)[C@H]9O)[C@H]8O[C@@H]8O[C@H](CO)[C@@H](O)[C@H](O)[C@H]8O)C(C)(C)[C@@H]7CC[C@@]6(C)[C@]4(C)CC5)O[C@@H]3CO)O[C@@H]2CO)[C@H](O)[C@H](O)[C@H]1O | inactive
C[C@@H]1O[C@@H](O[C@H]2CC[C@@]3(C)[C@@H](CC[C@]4(C)[C@@H]3CC=C3[C@@H]5CC(C)(C)CC[C@]5(C(=O)O)CC[C@]34C)[C@]2(C)CO)[C@H](O[C@@H]2O[C@H](CO)[C@@H](O)[C@H](O)[C@H]2O)[C@H](O)[C@H]1O | inactive
